From patent US7838672B2, “Use of fused ring-1,2,4-benzotriazine derivatives as herbicides or plant growth regulators for the control of undesired plants or vegetation, compounds and compositions thereof, and processes for their preparation” (Bayer CropScience GmbH, priority 2003, dated 2010)

Experiments:
[1] = test system: Galium aparine, Abutilon theophrasti, Alopecurus myosuroides, Avena fatua, Ipomoea purpurea, Echinchloa crus-galli, Solanum nigrum and Cyperus iria; assay: Post-emergence effect on weeds (greenhouse pot test, applied over the top of plants at one-leaf-stage); type: in vivo; settings: application rate of 3 kg or less of active ingredient per hectare, treated at one-leaf-stage, assessed three to four weeks after application vs untreated control
Method: Seeds of monocotyledonous and dicotyledonous weeds and/or crops were placed in sandy loam in wood-fibre-pots covered with soil and grown under good greenhouse conditions. The plants were treated at the one-leaf-stage two to three weeks after sowing. The compounds, formulated as wettable powders or emulsifiable concentrates were dissolved and diluted with water containing adjuvant and then applied over the top of the plants at different dose rates at an application volume of 600 or 800 litres water per ha. After the treatment, the pots were placed in the greenhouse and kept under good growth conditions for the plants. The herbicidal effect was assessed visually as a percentage figure in comparison with the untreated control three to four weeks after application

[2] = test system: Galium aparine, Abutilon theophrasti, Alopecurus myosuroides, Avena fatua, Ipomoea purpurea, Echinchloa crus-galli, Solanum nigrum and Cyperus iria; assay: Pre-emergence effect on weeds (greenhouse pot test, applied to the covering soil); type: in vivo; settings: application rate of 3 kg or less of active ingredient per hectare, assessed three to four weeks after application vs untreated control
Method: Seeds of monocotyledonous and dicotyledonous weeds and/or crops were placed in sandy loam in wood-fibre-pots and covered with soil. The compounds formulated as wettable powders or emulsifiable concentrates were dissolved and diluted with water containing adjuvant and then applied to the surface of the covering soil at different dose rates at an application volume of 600 or 800 litres water per ha. After the treatment, the pots were placed in the greenhouse and kept under good growth conditions for the plants. The herbicidal effect was assessed visually as a percentage figure in comparison with the untreated control three to four weeks after application. 100% Efficacy refers to the complete damage of the assessed plants, 0% efficacy refers to the appearance of the untreated control.

| Structure (SMILES) | melting point | post-emergence control of the tested weed species (herbicidal effect assessed visually) [1] | pre-emergence control of harmful weed species (herbicidal effect assessed visually) [2] |
| --- | --- | --- | --- |
| c1ccc2c(c1)nnc1nncn12 [Compound 3, [1,2,4]triazolo[3,4-c][1,2,4]benzotriazine] | 259 to 261 °C | very good post-emergence control | very good pre-emergence control |
| [O-][n+]1nc2nncn2c2ccc(Br)cc21 [Compound 5, 7-bromo[1,2,4]triazolo[3,4-c][1,2,4]benzotriazine-5-oxide] | – | very good post-emergence control | very good pre-emergence control |
| c1ccc2c(c1)NNc1nncn1-2 [Compound 6, 4,5-dihydro[[1,2,4]triazolo[3,4-c][1,2,4]benzotriazine] | – | very good post-emergence control | very good pre-emergence control |
